21 compounds from ChEMBL document CHEMBL1201862, “PubChem BioAssay data set” (2004) can be followed below.

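A five-concentration, 48-hour dose response in 96-well plates underlies each endpoint, interpolated linearly between surrounding concentrations. GI50 = concentration required for 50% inhibition of growth.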 Calls of active or inactive are those of the source. Cut-off read from the data, not from the text of the source: active = GI50 up to about 1.1 µM and inactive = higher.

Holding throughout (test): NCI-60 cell line screen, 48 h
The test system of test [1] is DMS-273.
The test system of test [2] is HOP-18.
In test [3] the test system is KM-20L2.
The subject of test [4] is M19-MEL.
For test [5], the system named is SNB-78.
Test [6] relates to XF498.
The test system of test [7] is DMS-114.
Test [8] has as its system LXFL 529.
For test [9], the system named is RXF 631.

For the compound `O=c1c2ccccc2n2n1CC(O)C2` (configuration not stated), the GI50 in test [1] was > 100 µM (inactive); in [2], > 100 µM (inactive); in [3], > 100 µM (inactive); in [4], > 100 µM (inactive); in [5], 9.35 µM (inactive); in test [6], > 100 µM (inactive).
For `ClC[Si]12OCCN(CCO1)CCO2`, the GI50 in test [7], in test [1], in test [2], in test [8], in test [9] and in [5] was > 100 µM (inactive) in each case.
For `Cc1ccc(C)c(NC2=NC(=O)C(CC(=O)Nc3ccc(Cl)cc3Cl)S2)c1` (configuration not stated), the GI50 in test [7] is 42.6 µM (inactive); in test [1], 98.6 µM (inactive); in test [2], > 100 µM (inactive); in test [3], > 100 µM (inactive); in [8], 58.7 µM (inactive); in test [4] it was 59.4 µM (inactive). The GI50 in test [6] was 32.7 µM (inactive).
Turning to `CCC1C2C=CC(CC2)N1S(=O)(=O)c1ccc(C)cc1` (configuration not stated), the GI50 in [7] is 20.3 µM (inactive); in [1] it was 18.2 µM (inactive); in test [3], 17.3 µM (inactive); in [8], 17.3 µM (inactive); in test [4], 31.4 µM (inactive); in [9], 27.4 µM (inactive).
Turning to `Cn1c(=O)nc2n(-c3cc(Cl)ccc3Cl)c3ccccc3nc-2c1=O`, the GI50 in test [7] was 2.11 µM (inactive); in test [1], 3.67 µM (inactive); in [2], 12.4 µM (inactive); in test [3] it was 2.93 µM (inactive); in [8] it was 13.8 µM (inactive); in [4], 1.35 µM (inactive). Further, the GI50 in test [5] is 13.5 µM (inactive); in [6], 7.76 µM (inactive).
As to `COC(=O)/C(=N\NC(=O)c1ccccc1O)C(C#N)c1ccccc1` (configuration not stated), the GI50 in [7] was 15.9 µM (inactive); in test [1], 19 µM (inactive); in test [3] it was > 50 µM (inactive); in [8], 21.5 µM (inactive); in test [4] it was 30 µM (inactive); in [5] it was 23.4 µM (inactive). Also, the GI50 in [6] was 17.3 µM (inactive).
Regarding `Oc1ccc(I)c2cccnc12`, the GI50 was 2.04 µM (inactive) in [1]; 8.07 µM (inactive) in [2]; 50.4 µM (inactive) in test [3]; 4.11 µM (inactive) in test [8]; 14.4 µM (inactive) in [4]; 56.9 µM (inactive) in [5]. Besides, the GI50 in [6] is 38.9 µM (inactive).
As to `Cc1c2ccccc2c(C)c2c3c(ccc12)C(=O)C=CC3=O`, the GI50 is 11.8 µM (inactive) in test [7]; 64.7 µM (inactive) in test [1]; 23.8 µM (inactive) in test [2]; 41.9 µM (inactive) in [3]; 17.3 µM (inactive) in [8]; 17.1 µM (inactive) in test [4]. In addition, the GI50 in [5] was 16.3 µM (inactive); in test [6], 17 µM (inactive).
For `Cc1ccc(/C=C/C(=O)C(C)(C)CN2CCCCC2)cc1`, the GI50 in test [1] was 3.02 µM (inactive); in test [3], 2.86 µM (inactive); in test [8] it was 6.62 µM (inactive); in [4], 11.8 µM (inactive); in test [9] it was 14.5 µM (inactive); in [5], 7.29 µM (inactive). The GI50 in test [6] is 11.7 µM (inactive).
With `CN(C)CCNC(=O)c1ccc2ccc3cccnc3c2n1`, the GI50 in test [7] was 12.1 µM (inactive); in test [1], 6.89 µM (inactive); in test [2] it was 26.2 µM (inactive); in test [3], 9.57 µM (inactive); in test [8], 11.8 µM (inactive); in [5], 7.78 µM (inactive).
In the case of `BrC(Br)=C1C(=C(Br)Br)C(Br)C1Br` (configuration not stated), the GI50 in [7] was 0.256 µM (active); in test [1], 0.126 µM (active); in test [2], 2.91 µM (inactive); in [3], 1.38 µM (inactive); in [8] it was 0.439 µM (active); in test [4], 0.63 µM (active). In addition, the GI50 in test [5] was 1.32 µM (inactive).
Regarding `CCN(CC)/[N+]([O-])=N/OCC(C)O` (configuration not stated), the GI50 in [7], in [1], in [4], in [9], in test [5] and in test [6] was > 100 µM (inactive) in each case.
Take `C[C@@]12CCCc3coc(c31)C(=O)c1cc3c(cc12)C(=O)C=CC3=O` [XESTOQUINONE]: the GI50 in test [7] is 18.5 µM (inactive); in [2], 15 µM (inactive); in test [3] it was 18.4 µM (inactive); in [8] it was 15 µM (inactive); in test [4], 13.8 µM (inactive); in [6], 16.1 µM (inactive).
Turning to `COc1cc(OC)c(OC)cc1/C=N/NC(=O)N/N=C/c1cc(OC)c(OC)cc1OC`, the GI50 in test [7], in test [1], in test [2], in test [3], in test [8] and in test [4] was > 100 µM (inactive) throughout. The GI50 in [5] was > 100 µM (inactive); in [6], 72.4 µM (inactive).
For `O=S(=O)(Cc1ccccc1)SCc1ccccc1`, the GI50 in test [7] was 17.5 µM (inactive); in [1] it was 29.9 µM (inactive); in [2], 18.9 µM (inactive); in test [3] it was 21.6 µM (inactive); in test [4], 22.2 µM (inactive); in test [9], 19.1 µM (inactive). For the same compound, the GI50 in [5] is 19.3 µM (inactive).
For the compound `CCOC(=O)c1nc2ccc(Cl)cc2c2c1Cc1ccccc1-2`, the GI50 in [1], in test [2], in [3], in [8], in test [4] and in test [5] was > 100 µM (inactive) each time. The GI50 in test [6] is > 100 µM (inactive).
As for `CCN(CC)CC[n+]1ccc2c(C)c3[nH]c4ccccc4c3c(C)c2c1`, in test [1], the GI50 is 0.338 µM (active).
For `Cc1cc(N(CCC#N)CCC#N)ccc1/C=C1N=C(/C=C\c2ccccc2)N(c2ccc(C(=O)O)cc2)C\1=O`, the GI50 in test [7], in test [2], in test [3], in test [8], in [4] and in test [9] was > 100 µM (inactive) in each case. Besides, the GI50 in test [5] is > 100 µM (inactive).
For `O=C(N/C(=C\c1cc(Cl)ccc1Cl)c1nc2ccccc2[nH]1)c1ccccc1`, the GI50 is 35.3 µM (inactive) in test [7]; 34 µM (inactive) in test [3]; 24.5 µM (inactive) in test [8]; 30.5 µM (inactive) in test [4]; 22.3 µM (inactive) in [9]; 45.4 µM (inactive) in [5]. Also, the GI50 in test [6] is 26.9 µM (inactive).
Turning to `COC1OC(CO)C(O)C1N` (configuration not stated), the GI50 in test [7], in [2], in [3], in [8], in test [9] and in test [5] was > 100 µM (inactive) each time.
Take `CCCN(CCCC(NC(C)=O)C(=O)NCc1ccccc1)C(=O)N(C)N=O` (configuration not stated): the GI50 in test [7], in test [1], in [3], in test [8], in test [4] and in test [5] was > 100 µM (inactive) each time. Further, the GI50 in test [6] is > 100 µM (inactive).
